{"source": "paper PMC3941082", "about": "(Journal of electroanalytical chemistry (Lausanne, …, 2014)", "target": "Concanavalin A (Con A), as Con A-ALP conjugate (Canavalia ensiformis, UniProt P02866)", "sequence (P02866 164-281 limits assumed)": "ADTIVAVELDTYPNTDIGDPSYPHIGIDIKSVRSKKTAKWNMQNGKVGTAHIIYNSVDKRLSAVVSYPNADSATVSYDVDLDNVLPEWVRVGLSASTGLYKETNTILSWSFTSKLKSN", "sequence (P02866 30-148 limits assumed)": "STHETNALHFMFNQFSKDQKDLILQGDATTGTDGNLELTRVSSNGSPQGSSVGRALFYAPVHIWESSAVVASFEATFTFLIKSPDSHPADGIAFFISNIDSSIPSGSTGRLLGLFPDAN", "assay": "competitive electrochemical lectin assay", "type": "binding"}
{"smiles": "CO[C@H]1O[C@H](CO)[C@@H](O)[C@H](O)[C@@H]1O", "note": "[methyl α-D-mannopyranoside]", "values": [{"measurement": "IC50", "value": "~90", "unit": "µM"}]}
